Tests used:
Bcl-2 = assay: Western blot of building block components, Bcl-2; format: cell-based; settings: for Bcl-2 (summary): oncogenic cells
Method: (§1) Skmel-28 melanoma cells were cultured in DMEM/F12 supplemented with 5% Fetal Bovine Serum (FBS) and 1× final concentration of Antibiotics. The cells were grown to 85% confluency and treated with building block components for 3, 6, 12 and 24 hours. The cells were then pelleted and a Western blot analysis was performed. The test building block components included L-Phenylylalanine, DL-Phenylylalanine, D-Phenylylalanine, L-Tyrosine, DL-Tyrosine, D-Tyrosine, 4-Hydroxy-phenylpyruvate, phenylacetate, 3-methoxy-4-hydroxymandelate (vanillylmandelate or VMA), vanillic acid, 4-hydroxy-benzoate, pyridoxine, panthenol, mevalonic acid, Acetylglycine, Acetyl-CoA, Farnesyl, and 2,3-Dimethoxy-5-methyl-p-benzoquinone.
(§2) In the Western Blot Analysis, the cells were pelleted in cold PBS, lysed, and the protein levels were quantified using a BCA protein assay. The whole cell lysate was loaded in a 4% loading 12% running Tris-HCl gel. The proteins were then transferred to a nitrocellulose paper then blocked with a 5% milk Tris-buffered solution for 1 hour. The proteins were then exposed to primary antibodies (Bcl-2 and Caspase-3) overnight. The nitrocellulose paper was then exposed to Pico Chemilluminescent for 5 min and the protein expression was recorded. After exposure, actin was quantified using the same method. Using ImageJ the levels of protein expression were quantified. A t-Test was used to analyze for statistical significance.

Caspase-3 = assay: Western blot of building block components, Caspase-3; format: cell-based; settings: for Caspase-3 expression: Skmel-28; for Caspase-3 expression (summary): oncogenic cells
Method: as §1, §2

[1] = system: induced pancreatic cancer; settings: Group H: 5 mg/kg
cancer cells = settings: cited from earlier work
Melanoma cells = assay: Cell proliferation assay (cell count) of building block combinations; format: cell-based
Method: This set of experiments used a cell proliferation assay to assess the effect of combining different building block molecules on cell proliferation.
The first study examined the effect of combining 4-Hydroxy-Benzoate with Benzoquinone. Cells were incubated for 48 hours, after which a cell count was performed for the live cells. Each test group was compared to the control, and each combination groups were compared to Benzoquinone control. The compounds were statistically analyzed for the addition of Benzoquinone.
Additional studies were performed testing additional molar ratios. For the first test 4-Hydroxybenzoic were tested at concentrations of 500 nM, 1 μM, and 50 μM. These concentrations were tested in combination with 2,3-Dimethoxy-5-methyl-p-benzoquinone (Benzo). The concentration of Benzo tested were 25 μM, 50 μM, and 100 μM. Melanoma cells were grown to 80% confluency and seeded in 6 well plates at a concentration of 40K cells per well. The cells were treated with CoQ10, 4-Hydroxybenzoate, Benzo, and a combination of 4-Hydroxybenzoate/Benzo.
A T-test was performed with p<0.05 as statistically significant.

[2] = system: neonatal fibroblast cells; assay: Cell proliferation assay (coulter counter); format: cell-based; settings: HB 500 nM, 5 μM, 25 μM, alone and with benzoquinone 25, 50, 100 μM; 24 hours
Method: A cell proliferation assay was also performed on neonatal fibroblast cells. The concentrations of HB tested were 500 nM, 5 μM, and 25 μM. HB was also tested in combination with benzoquinone at a concentrations of 25 μM, 50 μM, and 100 μM. Melanoma cells were seeded at 40 k cells per well and were treated for 24 hours. The cells were trypsinized and quantified using a coulter counter.

[3] = Skmel-28, all time points and concentrations tested (500 nM, 1 μM, 25 μM, 50 μM)
[4] = all time points and concentrations tested (500 nM, 1 μM, 25 μM, 50 μM)
[5] = Skmel-28, 24 hours, concentration not given

For `N[C@@H](Cc1ccccc1)C(=O)O` [L-Phenylalanine], the Bcl-2 expression (Bcl-2; Skmel-28, 5 μM, 6 hours) was “statistically significant decrease in Bcl-2”, the Bcl-2 expression (Bcl-2; Skmel-28, 25 μM, 12 hours) was “statistically significant decrease in Bcl-2” and the Bcl-2 expression (Bcl-2; Skmel-28, 100 μM, 3 hours and 12 hours) was “statistically significant decrease in Bcl-2”. The “Bcl-2 expression compared to the control” value (Bcl-2; Skmel-28, remaining time points, not statistically significant) was “constant trend for the decrease in Bcl-2”, the “Bcl-2 (summary)” value (Bcl-2) was “significant reduction in Bcl-2” and the Caspase-3 expression (Caspase-3; 25 μM, 12 hours) was “statistically significant increase in Caspase-3”. For the same molecule, the “Caspase-3 expression (summary)” value (Caspase-3) was “increase in Caspase-3 expression”.

For `COc1cccc2c1C(=O)c1c(O)c3c(c(O)c1C2=O)C[C@@](O)(C(=O)CO)C[C@@H]3O[C@H]1C[C@H](N)[C@H](O)[C@H](C)O1` [Doxorubicin, reference compound], the “survival after 28 days” value [1] was “a significant number of the animals in Group H had died due to the toxicity of Doxorubicin”.

In the case of `CC(=O)NCC(=O)O` [Acetylglycine], the Bcl-2 expression (Bcl-2; Skmel-28, 5 μM and 25 μM, 12 hours) is reported as “significant decrease in Bcl-2 expression” and the Bcl-2 expression (Bcl-2; Skmel-28, 100 μM, 24 hour) is reported as “significant decrease in Bcl-2”.

For `COc1cc(C(O)C(=O)O)ccc1O` (stereo not drawn) [VMA, 3-methoxy-4-hydroxymandelate], the “Bcl-2 expression, trend” value (Bcl-2; Skmel-28, 100 nM to 100 μM) was “downward trend of Bcl-2 expression” and the “apoptotic effect (Bcl-2, Caspase-3)” value (Bcl-2; Skmel-28, 100 nM to 100 μM) was “no statistically significant apoptotic effect”.

In the case of `CC(=O)SCCNC(=O)CCNC(=O)[C@H](O)C(C)(C)COP(=O)(O)OP(=O)(O)OC[C@H]1O[C@@H](n2cnc3c(N)ncnc32)[C@H](O)[C@@H]1OP(=O)(O)O` [Acetyl-CoA], the Bcl-2 expression (Bcl-2; [3]) is reported as “no significant observed reduction in Bcl-2” and the Caspase-3 expression (Caspase-3; [4]) is reported as “no significant observed reduction in Bcl-2 or increase in Caspase-3 expression”.

With `NC(Cc1ccc(O)cc1)C(=O)O` (racemic) [DL-Tyrosine] the Bcl-2 expression (Bcl-2; Skmel-28, 1 μM and 15 μM, 12 hours) was “statistical decrease in Bcl-2 expression”, the Bcl-2 expression (Bcl-2; Skmel-28, 5 μM, 24 hours) was “statistical decrease in Bcl-2 expression” and the Caspase-3 expression (Caspase-3; 5 μM and 15 μM, 12 hours) was “increase in Caspase-3 expression”.

In the case of `N[C@H](Cc1ccc(O)cc1)C(=O)O` [D-Tyrosine], the Bcl-2 expression (Bcl-2; Skmel-28, 5 μM and 15 μM, 12 and 24 hours) is reported as “reduction in Bcl-2 expression”, the Caspase-3 expression (Caspase-3; 1 μM, 12 and 24 hour) is reported as “increase in Caspase-3 expression” and the Caspase-3 expression (Caspase-3; 5 μM, 3, 12 and 24 time periods) is reported as “significantly increased”. The Caspase-3 expression (Caspase-3; 5 μM, 12 hour) was “increase in Caspase-3 expression”.

In the case of `C=C1/C(=C\C=C2/CCC[C@]3(C)[C@@H]([C@H](C)CCCC(C)(C)O)CC[C@@H]23)C[C@@H](O)C[C@@H]1O` [Vitamin D3, 1α, 25-dihydroxyvitamin D3], the “expression of BCL2 and BCL-XL” value (cancer cells; Deeb et al. 2007) is given as “repressing the expression of the anti-apoptotic, pro-survival proteins BCL2 and BCL-XL”, the “expression of pro-apoptotic proteins (BAX, BAK, BAD)” value (cancer cells; Deeb et al. 2007) is given as “inducing the expression of pro-apoptotic proteins” and the p21WAFI/CIPI gene transcription (cancer cells; Deeb et al. 2007) is given as “induce gene transcription of the cyclin-dependent kinase inhibitor p21WAFI/CIPI”. The “expression of VEGF” value (cancer cells; Masuda and Jones, 2006) was “inhibit the expression of vascular endothelial growth factor (VEGF)” and the “proliferation of tumor-derived endothelial cells” value (cancer cells; Masuda and Jones, 2006) was “inhibit the proliferation of some tumor-derived endothelial cells”.

For `O=C(O)C(=O)Cc1ccc(O)cc1` [4-Hydroxy-phenylpyruvate], the Bcl-2 expression (Bcl-2; Skmel-28, 5 μM and 15 μM, 24 hours) was “significant reduction in Bcl-2 expression”, the “Bcl-2 (summary)” value (Bcl-2) was “significant reduction in Bcl-2” and the Caspase-3 expression (Caspase-3; 5 μM and 15 μM, 12 hours) was “significant increase in Caspase-3 expression”. The “Caspase-3 expression (summary)” value (Caspase-3) was “increase in Caspase-3 expression”.

For `CC(C)(CO)[C@@H](O)C(=O)NCCCO` [Panthenol, panthenol], the Bcl-2 expression (Bcl-2; melanoma cells, 25 μM) was “significant reduction in Bcl-2 expression”.

With `N[C@@H](Cc1ccc(O)cc1)C(=O)O` [L-Tyrosine] the Bcl-2 expression (Bcl-2; Skmel-28, 5 μM, 24 hours) was “statistically significant decrease in Bcl-2”, the Bcl-2 expression (Bcl-2; Skmel-28, 500 μM and 5 μM, 24 hours) was “statistically significant decrease in Bcl-2” and the “Bcl-2 (summary)” value (Bcl-2) was “significant reduction in Bcl-2”. For the same molecule, the Caspase-3 expression (Caspase-3; 500 nM, 12 hours) was “statistically significant increase in Caspase-3” and the “Caspase-3 expression (summary)” value (Caspase-3) was “increase in Caspase-3 expression”.

For `NC(Cc1ccccc1)C(=O)O` (racemic) [DL-Phenylalanine], the Bcl-2 expression (Bcl-2; [5]) was “statistically significant decrease in Bcl-2” and the Caspase-3 expression (Caspase-3; 3 hours, concentration not given) was “statistically significant increase in Caspase-3”.

For `Cc1ncc(CO)c(CO)c1O` [Pyridoxine, pyridoxine], the Bcl-2 expression (Bcl-2; [5]) was “significant reduction in Bcl-2”.

For `N[C@H](Cc1ccccc1)C(=O)O` [D-Phenylalanine], the Bcl-2 expression (Bcl-2; Skmel-28, 5 μM and 25 μM, 3 hours) was “significant reduction”, the Bcl-2 expression (Bcl-2; Skmel-28, 5 μM, 25 μM and 100 μM, 6 hours) was “significant reduction in Bcl-2 expression” and the Caspase-3 expression (Caspase-3; 5 μM and 100 μM, 6 hours) was “significant increase in Caspase-3 expression”.

In the case of `COc1cc(C(=O)O)ccc1O` [Vanillic Acid, vanillic acid], the Bcl-2 expression (Bcl-2; Skmel-28, 500 nM and 5 μM, 24 hour) is reported as “significantly reduce Bcl-2 expression”, the Bcl-2 expression (Bcl-2; Skmel-28, 15 μM, 3 hours) is reported as “reduction in Bcl-2 expression” and the Caspase-3 expression (Caspase-3; 15 μM, 24 hours) is reported as “significant increase in Caspase-3 expression”.

For `C[C@@](O)(CCO)CC(=O)O` [Mevalonic Acid, mevalonic acid], the Bcl-2 expression (Bcl-2; [3]) was “no significant reduction in Bcl-2 expression” and the Caspase-3 expression (Caspase-3; [4]) was “no significant reduction in Bcl-2 expression or an increase in Caspase-3 expression”.

In the case of `O=C(O)c1ccc(O)cc1` [4-Hydroxybenzoate, 4-hydroxy-benzoate], the Bcl-2 expression (Bcl-2; Skmel-28, 15 μM, 24 hours) is reported as “significant reduction in Bcl-2 expression”, the “cell number vs control” value (Melanoma cells; 48 hours) is reported as “significant decrease in cell number” and the cell proliferation (Melanoma cells; HB 500 nM, 1 μM, 50 μM) is reported as “significant decrease in cell proliferation”. For the same molecule, the fibroblast cell number [2] was “did not show a significant reduction in fibroblast cells”.

From patent US10519504B2, “Methods for treatment of oncological disorders using epimetabolic shifters, multidimensional intracellular molecules, or environmental influencers” (Berg LLC, priority 2009, dated 2019)
